Laboratory results reported in patent US20030158089A1, “Administrative agents via the SMVT transporter” (priority 2002, published 2003).
Read-outs that look alike come from different tables or passages of the source.

Experiments:
[1] = biological target: T1, hSMVT (Homo sapiens, UniProt Q9Y289); assay: Radiolabeled competition assay in SMVT-expressing CHO cells; assay type: cell-based
T1 sequence (Q9Y289 1-635): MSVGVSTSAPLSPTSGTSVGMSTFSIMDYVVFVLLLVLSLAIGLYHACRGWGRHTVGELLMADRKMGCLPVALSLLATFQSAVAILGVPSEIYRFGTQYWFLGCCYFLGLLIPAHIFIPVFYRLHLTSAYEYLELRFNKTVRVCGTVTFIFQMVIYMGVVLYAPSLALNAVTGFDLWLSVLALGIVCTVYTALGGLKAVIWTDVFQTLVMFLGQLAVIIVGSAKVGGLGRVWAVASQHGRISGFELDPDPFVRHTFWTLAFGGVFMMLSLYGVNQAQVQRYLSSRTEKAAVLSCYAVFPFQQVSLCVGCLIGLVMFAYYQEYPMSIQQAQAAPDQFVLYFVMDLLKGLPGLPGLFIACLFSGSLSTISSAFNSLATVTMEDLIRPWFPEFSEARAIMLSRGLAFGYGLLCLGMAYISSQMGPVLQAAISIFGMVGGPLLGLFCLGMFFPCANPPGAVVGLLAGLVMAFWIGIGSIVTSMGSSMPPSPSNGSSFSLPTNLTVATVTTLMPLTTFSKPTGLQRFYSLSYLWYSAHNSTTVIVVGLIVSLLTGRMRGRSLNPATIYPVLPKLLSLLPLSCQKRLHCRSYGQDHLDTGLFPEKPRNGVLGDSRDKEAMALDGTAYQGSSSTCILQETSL
Description: The complete open reading frame of human SMVT (SLC5A6) was amplified from human cDNA prepared from intestinal mRNA. Gene-specific oligonucleotide primers were designed against Genbank sequences (NM-021095). Amplified PCR products were cloned into a modified version of the mammalian expression vector pcDNA3 (termed pMO) that was engineered to contain the 5′ and 3′ untranslated regions from the Xenopus beta-globin gene. All clones were completely sequenced and tested for function by transient transfection in HEK293 cells.
Stable clones of CHOK1 cells were obtained by electroporation, selection in G418, and single cell sorting using FACS ([…] cell sorting, Cytomation). Stable clones expressing SMVT were identified by enhanced uptake of radiolabeled substrates. For cell uptake studies, stable CHOK1 clones were seeded into polylysine coated 96-well microtiter plates and grown for 2-3 days. Cells were incubated with experimental solutions (combinations of radiolabeled and unlabeled compounds) for 30 minutes at room temperature, washed four times, and lysed in scintillation solution. Accumulation of radiolabeled molecules was measured in a microtiter scintillation plate reader (Perkin Elmer). Inhibition constants (IC50s) were calculated using curve-fitting software (Prism).

[2] = biological target: T2, human SMVT (SLC5A6) (Homo sapiens, UniProt Q9Y289); assay: Two-electrode voltage-clamp transport currents in SMVT-expressing Xenopus oocytes; assay type: cell-based; settings: for Vmax as a % of Biotin Vmax: % max response relative to biotin, transporter-expressing oocytes, test compound 0.5 mM
T2 construct: The complete open reading frame of human SMVT (SLC5A6) was amplified; expressed in transfected cells; host or cells: Xenopus oocytes injected with 10-30 ng cRNA transcribed from the pMO plasmid
T2 sequence (Q9Y289 1-635): T1 sequence (Q9Y289 1-635)
Description: “Vmax” and “KM” of a compound for a transporter (e.g., the SMVT transporter) are defined in accordance with convention. Vmax is the number of molecules of compound transported per unit time at saturating concentration of the compound. KM is the concentration of the compound at which the compound is transported at half of Vmax. In general, a high value Of Vmax is desirable for a substrate of a transporter. A low value of KM is desirable for transport of low concentrations of a compound, and a high value of KM is desirable for transport of high concentrations of a compound. Vmax is affected both by the intrinsic turnover rate of a transporter (molecules/transporter protein) and transporter density in plasma membrane that depends on expression level. For these reasons, the intrinsic capacity of a compound to be transported by a particular transporter is usually expressed as the ratio (or percent) of the Vmax of the compound/Vmax of a control compound known to be a substrate for the transporter.
cRNA for oocyte expression was prepared by linearization of plasmid cDNA and in vitro transcription using T7 polymerase (Epicentre Ampliscribe kit). Xenopus oocytes were prepared and maintained as previously described (Collins et al., PNAS […]:5456-5460 (1997)) and injected with 10-30 ng RNA. Transport currents were measured 2-6 days later using two-electrode voltage-clamp (Axon Instruments). All experiments were performed using a modified oocyte ringers solution (90 mM NaCl, 2 mM KCl, 1.8 mM CaCl2, 1 mM MgCl2, and 10 mM NaHEPES, pH 7.4; in Na^+-free solutions […] choline chloride was substituted for NaCl). The membrane potential of oocytes was held at −60 mV and current traces acquired using PowerLab software (ADInstruments). Full 7-concentration dose-responses were performed for each compound. […] Half-maximal concentrations were calculated using non-linear regression curve fitting software (Prism) with the Hill co-efficient fixed to 1. To ensure that currents were specific for the over-expressed transporter, all compounds were tested against uninjected oocytes.

[3] = rat, 2 μM
Description: (§1) The stability of conjugates were evaluated in one or more in vitro systems using a variety of tissue preparations following methods known in the art. […] Each preparation was incubated with test compound at 37° C. for one hour. Aliquots (50 μL) were removed at 0, 30, and 60 min and quenched with 0.1% trifluoroacetic acid in acetonitrile. Samples were then centrifuged and analyzed by LC/MS/MS.

[4] = rat, 2 μM, pH 7.4
Description: as §1

[5] = Caco-2 homogenate S9 stability; assay type: in vitro ADME; settings: Caco-2 S9 (0.5 mg protein per mL), 37° C, 5 μM
Description: Caco-2 Homogenate S9 Stability: Caco-2 cells were grown for 21 days prior to harvesting. Culture medium was removed and cell monolayers were rinsed and scraped off into ice-cold 10 mM sodium phosphate/0.15 M potassium chloride, pH 7.4. Cells were lysed by sonication at 4° C. using a probe sonicator. Lysed cells were then transferred into 1.5 mL centrifuge vials and centrifuged at 9000 g for 20 min at 4° C. The resulting supernatant (Caco-2 cell homogenate S9 fraction) was aliquoted into 0.5 mL vials and stored at −80° C. until used.
For stability studies, conjugate (5 μM) was incubated in Caco-2 homogenate S9 fraction (0.5 mg protein per mL) for 60 min at 37° C. Concentrations of intact conjugate and released drug were determined at zero time and 60 minutes using LC/MS/MS.

[6] = test system: Pancreatin; assay: Pancreatin stability; assay type: in vitro ADME, porcine; settings: 1 % (w/v) pancreatin, pH 7.5, 37° C, 5 μM
Description: Pancreatin Stability: Stability studies were conducted by incubating conjugate (5 μM) with 1 % (w/v) pancreatin (Sigma, P-1625, from porcine pancreas) in 0.025 M Tris buffer containing 0.5 M NaCl (pH 7.5) at 37° C. for 60 min. The reaction was stopped by addition of 2 volumes of methanol. After centrifugation at 14,000 rpm for 10 min, the supernatant was removed. and analyzed by LC/MS/MS.

[7] = In vitro cleavage of conjugate in rat plasma; settings: 37° C, 2.0 μM
Description: as §1

[8] = In vitro cleavage of conjugate in human plasma; settings: 37° C, 2.0 μM
Description: as §1

[9] = In vitro cleavage of conjugate in rat liver S9; settings: Rat Liver S9 (0.5 mg/mL), NADPH, 37° C, 2.0 μM
Description: as §1

[10] = In vitro cleavage of conjugate in human liver S9; settings: Human Liver S9 (0.5 mg/mL), NADPH, 37° C, 2.0 μM
Description: as §1

[11] = in vivo; settings: male, Sprague-Dawley, rat, po
Description: Test compounds were administered as an intravenous bolus injection or by oral gavage to groups of four to six adult male Sprague-Dawley rats (weight approx 250 g) as solutions in water or water/ethanol (90:10). The doses ranged between 10 and 200 mg per kg body weight (i.e. 0.04-0.8 mmole/kg). Animals were fasted overnight before the study and for 4 hours post-dosing. Blood samples (1.0 mL) were obtained via a jugular vein cannula at intervals over 24 hours after oral dosing. Blood was processed immediately for plasma and plasma was frozen at −80° C. until analyzed.
Concentrations of test compound in plasma were determined using an API 2000 LC/MS/MS instrument equipped with an Agilent 1100 binary pump and an Agilent autosampler. The column was a Zorbax XDB C8 4.6*150 mm column at room temperature. The mobile phases were 0.1% formic acid (A) and acetonitrile with 0.1% formic acid (B). The gradient condition was: 5% B for 1 min, increasing to 98% B in 3 min and maintained for 2.5 min. […] The peaks were integrated using Analyst 1.1 quantitation software.
Oral bioavailability (F) was determined by comparison of the area under the concentration versus time curve (AUC) following oral administration of the conjugate or intravenous administration of the parent agent at equimolar doses.

[12] = test system: human or rat SMVT; settings: voltage-clamped Xenopus oocytes; cited from earlier work
[13] = radiolabeled competition assay in SMVT-expressing CHO cells, read-out: IC50

CC(C)(C)C(=O)OCOC(=O)NCC1(CC(=O)O)CCCCC1 [(1), 1-{[(α-Pivaloyloxymethoxy)carbonyl]aminomethyl}-1-Cyclohexane Acetic Acid]
IC50 [1, 13]: 450 µM
Vmax as a % of Biotin Vmax [2]: 21%

CC(OC(=O)NCC1(CC(=O)O)CCCCC1)OC(=O)C(C)C (stereo not drawn) [(6), 1-{[(α-Isobutanoyloxyethoxy)carbonyl]aminomethyl}-1-Cyclohexane Acetic Acid]
IC50 [1, 13]: 100 µM
Vmax as a % of Biotin Vmax [2]: 46%
% of Drug Released from Conjugate after 60 min [3]: 23%
% of Drug Released from Conjugate after 60 min [4]: 52%

CCC(=O)OC(OC(=O)NCC1(CC(=O)O)CCCCC1)C(C)C (stereo not drawn) [(9), 1-{[(α-Propanoyloxyisobutoxy)carbonyl]aminomethyl}-1-Cyclohexane Acetic Acid]
Vmax as a % of Biotin Vmax [2]: 19%
% of Drug Released from Conjugate after 60 min [5]: 65%
% of Drug Released from Conjugate after 60 min [6]: 25%
% of Drug Released from Conjugate after 60 min [7]: 69%
% of Drug Released from Conjugate after 60 min [8]: 7%
% of Drug Released from Conjugate after 60 min [9]: 62%
% of Drug Released from Conjugate after 60 min [10]: 83%

NCC1(CC(=O)O)CCCCC1 [Gabapentin, reference compound]
IC50 [1]: > 500 µM
Vmax as a % of Biotin Vmax [2]: 0%

O=C(O)CCCC[C@@H]1SC[C@@H]2NC(=O)N[C@@H]21 [biotin]
plasma concentration at the highest dose [11]: ~4000 ng/mL
bioavailability ([11]; 25 mg/kg): 100%
bioavailability ([11]; 200 mg/kg): 27%
Km [12]: 5 to 20 µM

CC(C)(CO)[C@@H](O)C(=O)NCCC(=O)[O-].[Na+] [pantothenate, sodium pantothenate]
plasma concentration at the highest dose [11]: ~4000 ng/mL
bioavailability ([11]; 25 mg/kg): 35%
bioavailability ([11]; 200 mg/kg): 10%

N-acetyl-D-Lys(ε-biotin)-D-Arg-D-Arg-D-Arg-D-Gln-D-Arg-D-Arg-D-Lys-D-Lys-D-Arg-NH2 [biotinylated decapeptide, reference compound]
specific sodium-dependent current (SMVT substrate activity) ([2]; 20 μM peptide, presence and absence of 100 mM Na+): no specific, sodium-dependent current
